Article PMC3391913, “Cellular Immune Reactions of the Sunn Pest, Eurygaster integriceps, to the Entomopathogenic Fungus, Beauveria bassiana and Its Secondary Metabolites” (Journal of Insect Science, 2011)

Test system: T1, phenoloxidase (PO)
T1 construct: gene prophenoloxidase; native, unpurified hemocyte lysate supernatant of adults; bands of 46 and 59 kDa on native PAGE
Test: spectrophotometric phenoloxidase assay at […] nm, fit in SigmaPlot
Type: biochemical, Eurygaster integriceps
Conditions: control insects without fungal metabolite; hemocyte lysate; 3-10 mM substrate; phosphate buffer pH 6.5; 30 °C

`N[C@@H](Cc1ccc(O)c(O)c1)C(=O)O` [L-dihydroxyphenylalanine] was tested, and the Km was 1630 µM.
